In experiment [1] the test system is contact dermatitis or erythema. Kind of experiment: topical treatment of facial erythema caused by glycolic acid cream. It counts as in vivo, human. The conditions noted are these: 5% partially neutralized cream, three applications over 24 hour period, person; control side persisted. The source says: A subject, developed contact dermatitis or erythema on their face after topical applications of 20% unneutralized glycolic acid cream. They applied 5% partially neutralized lactobionic acid cream on the left side of their face and a control cream on the right side of their face.

The nature of experiment [2]: antioxidant property, anthralin test method. The experiment is classed as physicochemical. An excerpt:
(§1) An antioxidant may be defined as a substance capable of preventing or inhibiting oxidation. […] The antioxidant property is readily determined by using any one of the following test methods: prevention or retardation of air oxidation of (a) anthralin, (b) hydroquinone, or (c) banana peel. A freshly prepared anthralin solution or cream is bright yellow, and an air oxidized one is brownish or black. A hydroquinone solution or cream is colorless or white color, and an air oxidized one is brownish or black. A freshly peeled banana peel is light yellow in color and an oxidized one ranges in color from tan, dark tan, brown to brownish black.
Antioxidant property of an oligosaccharide aldonic acid may be determined by utilizing anthralin test method as follows.
Anthralin also known as dithranol is a yellowish powder, and a composition containing anthralin without a suitable antioxidant is chemically unstable even at room temperature. For example, anthralin 0.05% in an oil-in-water cream changed in color from yellow to gray within 24 hours at room temperature, and the cream became brownish within 48 hours. Under anhydrous condition, anthralin 0.05% ointment prepared from white petrolatum 2 parts and mineral oil 1 part by weight changed in color from bright yellow to grayish yellow within 24 hours, and the ointment became brownish after 12 days at room temperature.
Based on the above observations, an oil-in-water cream containing 0.4% anthralin with or without a known antioxidant was used as a positive or vehicle control.

In experiment [3] the test system is chronic gum disease of bleeding. Kind of experiment: oral gurgling treatment of chronic gum disease. The experiment is classed as in vivo, human. The conditions noted are these: 5% in molecular complex with 1% L-arginine, pH 3.3, gurgling twice daily, one week, person. The protocol:
Lactobionic acid 50% aqueous solution 10 g was diluted with 60 ml water and 10 ml propylene glycol, and the solution had pH 2.1. L-Arginine 5% solution 20 g prepared from 8 parts water and 2 parts propylene glycol by volume was added to form molecular complex of amphoteric system as shown by the increase of pH to 3.3. The composition thus formulated contained 5% lactobionic acid in molecular complex with 1% L-arginine.
A subject, having chronic gum disease of bleeding during the tooth brushing, used the above bionic acid complex composition twice daily as a gurgling solution with at least one minute of contact time in oral cavity. No food or drink was taken for the next 30 minutes.

The nature of experiment [4]: antioxidant property, banana peel test method. The conditions noted are these: for colour of banana peels: 1×2 cm peels in 5 ml 0.1 M solution, room temperature.
Description: as §1
For example, in control experiments, fresh banana peels cut into sizes of 1×2 cm in 50 mm plastic petri dishes containing 5 ml water at neutral or acidic pH changed in color from white-yellowish to tan within 6 hours at room temperature, and changed to dark tan color during the next period of 24 to 72 hours.
Antioxidant property of an oligosaccharide aldonic acid may also be determined by utilizing banana peel test method as follows.
A fresh ripe banana peel cut into sizes of 2×2 cm has the outer layer light yellow in color. These freshly cut banana peels after exposed to air or immersed in an aqueous solution without an antioxidant in 50 mm plastic petri dishes rapidly changed in color from yellowish to tan within 3 hours, dark tan within 24 hours and brown black after 72 hours. A test substance including a positive control such as vitamin C, citric acid or N-acetylcysteine was prepared as 0.1 M concentration, and each test dish contained 5 ml test solution. Freshly cut banana peels 2×2 cm in sizes were immersed in 5 ml test solutions including known antioxidants and vehicle controls with pH at 7.0 and 4.0. […] The same results were also found for the known antioxidant substances; vitamin C, citric acid and N-acetylcysteine.

For experiment [5], the system named is skin fissures (open cuts). Kind of experiment: topical treatment of skin fissures at finger tips. It counts as in vivo, human. The conditions noted are these: 10% oil-in-water cream twice daily, person. On the procedure:
A subject, having two skin fissures (open cuts) 2-3 mm long at the finger tips, extending from the hyponychia, topically applied twice daily lactobionic acid 10% oil-in-water cream to one fissure for one week. The other fissure was treated with a vehicle control.

Turning to `O=C(O)[C@H](O)[C@@H](O)[C@H](O[C@@H]1O[C@H](CO)[C@H](O)[C@H](O)[C@H]1O)[C@H](O)CO` [lactobionic acid], the “erythema of facial skin” value in experiment [1] is “improved substantially and the erythema became less noticeable”. In experiment [2] (anthralin and hydroquinone test methods), the antioxidant grade result is “moderate antioxidant”. For the same compound, the “colour change of anthralin cream” value in experiment [2] (oil-in-water cream, 0.4% anthralin, test substance 0.1 M, 24 hours) is “did not change the color”. In addition, in experiment [3], the “gum bleeding during tooth brushing” value is on record as “gum bleeding stopped or became less noticeable”. Also, the “colour of banana peels” value in experiment [4] (24 hours) is on record as “remained white-yellowish”; in experiment [4] (after 72 hours), “changed in color to tan”. For the same compound, the “colour change of banana peels” value in experiment [4] (2×2 cm peels in 5 ml 0.1 M test solution, water control tan within 4 hours) is listed as “did not change color”. Also, the “healing of skin fissure” value in experiment [5] (after a week, vehicle site unhealed) is on record as “skin fissure healed completely”. In experiment [5], the “pain of skin fissure” value is “pain disappeared after a few days”.

These data come from patent US20120040920A1, “OLIGOSACCHARIDE ALDONIC ACIDS AND THEIR TOPICAL USE” (priority 1999, published 2012).
